“And” between values parts separate entries of the source, which are not always exact repeats. Equal entries are not always repeated.
What was measured:
hPAR2 = target: T1, hPAR2 (Homo sapiens, UniProt P55085); experiment: Ca^2+ flux assay, inhibition of tryptase activation in 1321N1-hPAR2 cells; assay type: cell-based; details: 1 µM Vorapaxar
T1 sequence (P55085 26-397): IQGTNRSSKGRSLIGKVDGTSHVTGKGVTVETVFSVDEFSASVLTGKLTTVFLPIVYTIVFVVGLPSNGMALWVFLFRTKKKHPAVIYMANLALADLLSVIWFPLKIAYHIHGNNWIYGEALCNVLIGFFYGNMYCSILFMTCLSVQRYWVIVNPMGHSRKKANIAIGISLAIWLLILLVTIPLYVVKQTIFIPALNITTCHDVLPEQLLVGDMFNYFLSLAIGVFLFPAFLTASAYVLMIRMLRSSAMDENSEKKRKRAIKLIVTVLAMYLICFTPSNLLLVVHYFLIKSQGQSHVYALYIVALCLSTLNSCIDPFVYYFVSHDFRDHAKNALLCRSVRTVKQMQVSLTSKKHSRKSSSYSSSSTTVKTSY
Protocol: For evaluation of Ca^2+ mobilisation, 1321N1-hPAR2 cells were seeded in 384-well CellBIND plates (Corning) at 4000 cells per well in DMEM containing 10% FBS and incubated for 18–24 hours at 37 °C, 5% CO2 and 95% humidity. Cells were loaded with Fluo-8 NW calcium dye (AAT Bioquest) for 30 min at 37 °C before compounds in Hank’s balanced salt solution (HBSS, ThermoFisher Scientific) with 20 mM HEPES (ThermoFisher Scientific), 0.1% bovine serum albumin (BSA, Sigma) and 0.5% DMSO were added and simultaneously evaluated for changes in intracellular [Ca^2+] using FLIPR TETRA (Molecular Devices) to detect agonism. For each concentration, the difference between the maximum peak Ca^2+ response and baseline response is reported. […] Inhibition of Ca^2+ release on rat PAR2 was measured in the same way using 10 000 KNRK cells per well seeded in poly-D-lysine coated 384-well plates (Greiner), 30 min preincubation with the compound before activation of PAR2 with EC80 of SLIGRL-NH2 (120 µM) and real-time detection of Ca^2+. […] Intracellular [Ca^2+] flux was measured using FLIPR TETRA (Molecular Devices) and the difference between the maximum peak Ca^2+ response and baseline response is reported.

mast cells = experiment: Immunohistochemistry, tryptase-positive (AA1+ve) intact mast cells in rat paw; assay type: in vivo; details: for AA +ve cells (% max): 2f-induced rat paw oedema, individual animals (Figure 5c); for decrease of tryptase-positive mast cells by 2f-LIGRLO-NH2: pre-treatment, 30 min
Protocol: (§1) Tissues were then embedded with Optimal Cutting Temperature compound (OCT, Sakura Finetek, USA) and stored at −80 °C before making cryo-sections for histological analysis. Frozen sections (5 µm) were made using a cryostat-microtome (Leica Biosystems, Germany). […] Slides were then dehydrated and mounted in DPX mountant (Sigma-Aldrich, USA). For immunohistochemistry, slides were briefly rinsed with PBS to remove OCT. Except for tryptase staining, antigen retrieval was performed by incubating slides in citrate buffer (0.01 M, pH 6) at 95 °C for 20 min. They were then cooled down briefly and incubated with blocking medium (PBS, 0.1% Triton X-100, 10% horse serum) for 1 h at room temperature in a humidity chamber. Samples were incubated with primary antibody medium (PBS, 0.1% Triton X-100, 4% horse serum; 1:100 primary antibody including – histamine, neutrophil elastase or ED1 antibodies) overnight at 4 °C. The next day, samples were washed with PBS and incubated with the secondary antibody medium (PBS, 0.1% Triton X-100, 4% horse serum, detection antibody 1:200) for 2 h at room temperature. For tryptase staining, slides were incubated with primary antibody medium (as above with tryptase antibody at 1:100 dilution) for 4 h, then the secondary antibody medium for 2 h. Finally, slides were dried, counterstained with DAPI (Invitrogen, Australia), and sealed with clear nail polish. Primary antibodies for tryptase (AA1, ab2378, Abcam, Australia), histamine (H7403, Sigma-Aldrich, USA), neutrophil elastase (ab21595, Abcam, Australia) and ED1 (ab31630, Abcam, Australia) were purchased from commercial sources. Secondary detection antibody was purchased from Abcam, Australia.

neutrophils = experiment: Immunohistochemistry, neutrophil elastase-positive (NE+ve) neutrophils in rat paw; assay type: in vivo; details: for NE +ve cells (% max): 2f-induced rat paw oedema, individual animals (Figure 5h); for decrease of NE+ve cells by 2f-LIGRLO-NH2: pre-treatment, 30 min
Protocol: as §1

[1] = target: T2, PAR2 stabilised receptor (StaR) (Homo sapiens, UniProt P55085); experiment: Surface plasmon resonance (SPR) binding, single-cycle kinetics; details: n of 2, earlier manuscript version quoted by reviewer
T2 sequence (P55085 55-377): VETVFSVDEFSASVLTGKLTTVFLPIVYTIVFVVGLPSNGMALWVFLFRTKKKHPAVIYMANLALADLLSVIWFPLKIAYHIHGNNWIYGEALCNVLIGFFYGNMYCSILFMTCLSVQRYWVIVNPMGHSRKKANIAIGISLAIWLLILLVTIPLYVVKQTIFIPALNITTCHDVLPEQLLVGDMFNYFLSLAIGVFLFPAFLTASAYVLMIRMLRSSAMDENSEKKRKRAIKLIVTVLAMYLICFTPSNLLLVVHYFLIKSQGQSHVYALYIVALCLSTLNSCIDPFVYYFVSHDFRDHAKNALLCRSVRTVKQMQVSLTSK

[2] = target: T2, PAR2 stabilised receptor (StaR); details: SPR, previously reported; cited from earlier work

inhibition of tryptase-induced Ca^2+ response (hPAR2)	Kd [1]	Compound	AA +ve cells (% max) (mast cells)	decrease of tryptase-positive mast cells by 2f-LIGRLO-NH2 (mast cells)	NE +ve cells (% max) (neutrophils)	decrease of NE+ve cells by 2f-LIGRLO-NH2 (neutrophils)	residence time [2]
only partial inhibition at low	–	C[C@@H](C1CCCCC1)n1c(-c2cc3c(cc2Br)OCO3)nc2cc(C(=O)Nc3ccncc3)ccc21 [AZ2623]	–	–	–	–	–
only partial inhibition at low	14 nM	C[C@@H](C1CCCCC1)n1c(-c2cc3c(cc2Br)OCO3)nc2cc(C(=O)Nc3ccc(C#N)cc3)ccc21 [AZ3451]	91.7692 % max and 45.8846 % max and 58.1835 % max and 66.6982 % max	partly blocked	135.782 % max and 55.9949 % max and 85.0488 % max and 57.3155 % max	partially inhibited	–
–	–	CCCc1cc(F)ccc1C(O)c1ncc[nH]1 (stereo not drawn) [AZ8838]	70.0073 % max and 71.1692 % max and 108.061 % max and 60.4212 % max and 59.2593 % max	partly blocked	83.5679 % max and 62.4433 % max and 139.912 % max and 107.932 % max and 66.1651 % max	partially inhibited	about 84 min

From PMC7747594, “Protease-activated receptor-2 ligands reveal orthosteric and allosteric mechanisms of receptor inhibition” (Communications Biology, 2020)
